The source made the active and inactive calls. The calls are words filed in the database; no cut-off is given here.
Experiments:
[1] = target: T1, Protein deacetylase HDAC6 (Homo sapiens, UniProt Q9UBN7); assay: Inhibition of human HDAC6 by [3H]acetyl histone peptide assay
T1 sequence (Q9UBN7 whole entry): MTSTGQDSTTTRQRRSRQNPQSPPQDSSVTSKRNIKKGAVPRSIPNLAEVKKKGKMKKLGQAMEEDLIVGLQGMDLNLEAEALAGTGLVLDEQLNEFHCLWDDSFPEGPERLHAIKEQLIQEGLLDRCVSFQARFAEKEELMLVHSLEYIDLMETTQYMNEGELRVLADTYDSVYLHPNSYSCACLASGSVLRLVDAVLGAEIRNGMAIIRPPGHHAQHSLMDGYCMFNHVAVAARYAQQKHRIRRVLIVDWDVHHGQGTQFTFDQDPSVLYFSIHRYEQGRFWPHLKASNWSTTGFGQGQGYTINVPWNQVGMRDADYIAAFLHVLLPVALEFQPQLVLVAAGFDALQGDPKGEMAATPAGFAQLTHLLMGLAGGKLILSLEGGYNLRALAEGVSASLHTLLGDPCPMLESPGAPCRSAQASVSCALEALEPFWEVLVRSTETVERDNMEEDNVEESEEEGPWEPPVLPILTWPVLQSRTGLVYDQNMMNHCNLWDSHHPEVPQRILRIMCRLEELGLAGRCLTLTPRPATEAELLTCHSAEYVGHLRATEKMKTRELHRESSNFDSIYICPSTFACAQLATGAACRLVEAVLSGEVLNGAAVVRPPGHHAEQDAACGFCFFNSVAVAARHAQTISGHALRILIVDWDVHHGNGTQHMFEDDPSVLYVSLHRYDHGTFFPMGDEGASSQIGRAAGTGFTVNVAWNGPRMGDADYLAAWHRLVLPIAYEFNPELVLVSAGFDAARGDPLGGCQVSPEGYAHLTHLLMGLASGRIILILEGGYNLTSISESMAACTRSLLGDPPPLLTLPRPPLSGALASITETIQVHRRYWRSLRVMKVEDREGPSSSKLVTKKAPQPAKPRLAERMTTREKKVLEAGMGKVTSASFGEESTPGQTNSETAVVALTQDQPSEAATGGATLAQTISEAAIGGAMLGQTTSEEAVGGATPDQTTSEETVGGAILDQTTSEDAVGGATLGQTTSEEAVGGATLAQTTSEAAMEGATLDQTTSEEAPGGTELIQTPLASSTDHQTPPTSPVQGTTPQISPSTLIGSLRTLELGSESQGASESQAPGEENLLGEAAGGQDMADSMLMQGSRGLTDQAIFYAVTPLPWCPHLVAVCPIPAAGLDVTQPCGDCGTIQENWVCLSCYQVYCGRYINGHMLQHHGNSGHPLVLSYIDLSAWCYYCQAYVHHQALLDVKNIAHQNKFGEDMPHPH

[2] = target: T2, Histone deacetylase 8 (Homo sapiens, UniProt Q9BY41)
T2 sequence (Q9BY41 whole entry): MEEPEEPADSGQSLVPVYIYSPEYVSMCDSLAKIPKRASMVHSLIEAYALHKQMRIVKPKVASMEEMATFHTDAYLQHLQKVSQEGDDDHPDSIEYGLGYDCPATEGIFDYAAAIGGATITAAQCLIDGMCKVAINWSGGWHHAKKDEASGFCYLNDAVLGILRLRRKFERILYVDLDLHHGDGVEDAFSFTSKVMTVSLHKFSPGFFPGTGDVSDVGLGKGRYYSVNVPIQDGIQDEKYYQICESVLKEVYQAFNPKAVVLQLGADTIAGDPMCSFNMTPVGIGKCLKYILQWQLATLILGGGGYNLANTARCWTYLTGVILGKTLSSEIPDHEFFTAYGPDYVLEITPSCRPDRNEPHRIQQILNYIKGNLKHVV
Description: Inhibition of human HDAC8 by [3H]acetyl histone peptide assay

[3] = target: Histone deacetylase 1 (Homo sapiens, UniProt Q13547); assay: Inhibition of human HDAC1 by [3H]acetyl histone peptide assay
[4] = system: HEK293; assay: Increase in lysine-acetylated histone H4 levels in HEK293 cells by Western blot; type: functional, cell-based; conditions: Homo sapiens
[5] = system: HeLa; assay: Increase in lysine-acetylated histone H4 levels in HeLa cells by Western blot; type: functional, cell-based; conditions: Homo sapiens
[6] = system: HEK293; assay: Increase in lysine-acetylated tubulin levels in HEK293 cells by Western blot; type: functional, cell-based; conditions: Homo sapiens
[7] = system: HeLa; assay: Increase in lysine-acetylated tubulin levels in HeLa cells by Western blot; type: functional, cell-based; conditions: Homo sapiens

Sequence of Histone deacetylase 1 (Q13547 whole entry): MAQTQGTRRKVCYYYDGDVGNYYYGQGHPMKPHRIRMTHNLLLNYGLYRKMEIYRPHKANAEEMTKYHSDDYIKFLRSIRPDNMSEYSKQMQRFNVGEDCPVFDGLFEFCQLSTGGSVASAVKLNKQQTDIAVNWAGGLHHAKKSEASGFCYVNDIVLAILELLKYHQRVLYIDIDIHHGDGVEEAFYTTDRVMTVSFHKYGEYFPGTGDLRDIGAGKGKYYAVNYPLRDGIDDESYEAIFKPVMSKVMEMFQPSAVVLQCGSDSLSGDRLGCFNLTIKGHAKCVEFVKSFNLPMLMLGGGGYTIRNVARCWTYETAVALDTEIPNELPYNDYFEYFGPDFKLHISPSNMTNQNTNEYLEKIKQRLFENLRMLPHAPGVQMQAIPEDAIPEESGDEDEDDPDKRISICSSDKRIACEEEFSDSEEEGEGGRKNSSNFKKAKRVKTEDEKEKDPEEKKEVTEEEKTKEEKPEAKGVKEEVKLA

| SMILES | IC50 [1] | IC50 [2] | IC50 [3] | Activity [4] | Activity [5] | Activity [6] | Activity [7] |
| --- | --- | --- | --- | --- | --- | --- | --- |
| O=C(NO)c1cccc(Oc2ccccc2)c1 | – | 6.6 µM | – | – | – | – | – |
| O=C(NO)c1ccc(-c2cccc3ccccc23)cc1 | 55 µM | 0.3 µM | > 100 µM | – | – | – | – |

Continued by falling IC50 [2], values first:

| IC50 [1] | IC50 [2] | IC50 [3] | SMILES | Activity [4] | Activity [5] | Activity [6] | Activity [7] |
| --- | --- | --- | --- | --- | --- | --- | --- |
| > 100 µM | 20 µM | > 100 µM | O=C(NO)c1cccc(-c2ccccc2)c1 | – | – | – | – |
| > 100 µM | 14 µM | > 100 µM | O=C(NO)c1cccc2ccccc12 | – | – | – | – |
| 82 µM | 0.7 µM | > 100 µM | O=C(/C=C/c1cccc2ccccc12)NO | Active | Active | Active | Active |
